From patent US8258097B2, “Amino acid derivatives” (Proximagen Ltd., priority 2007, dated 2012)

Test system: 6-OHDA-lesioned rats
Assay: Assessment of rotational (locomotor) activity in 6-OHDA-lesioned rats
Format: in vivo, Male Wistar rats
Settings: p.o., with benserazide 10 mg/kg, 63.4 μmole/kg
Description: • Animals Male Wistar rats, 200-225 g on arrival, Harlan Ltd. • Housing Animals were housed in groups of 4 on a 12-h light-dark cycle with an environment of 50% humidity and temperature of 21±2° C. in accordance with Animals (Scientific Procedures) Act […] Home Office regulations. Rats had access to food and water ad libitum. • Licence All animals used in this study were treated in accordance with the UK 1986 Animals (Scientific Procedures Act). Procedure • Surgery Male Wistar rats were anaesthetized in an induction chamber using isofluorane (1-2% in 95% O2, 5% CO2 carrier gas), placed in a Kopf stereotaxic frame and anaesthesia maintained with 0.5-1.0% isofluorane. An incision was made in the scalp and a 0.8-mm-diameter hole made in the skull at coordinates AP: −2.6 mm, L: +2.0 mm (all co-ordinated measured from bregma). The neurotoxin 6-hydroxydopamine (6-OHDA) (8 μg free base in 4 μL of 0.9% saline containing 0.05% ascorbic acid) was injected into the left median forebrain bundle at a constant rate over 4 min (1 μl/min) using a 10-μL Hamilton syringe lowered to −8 mm below the dura. The needle remained in place for a further 4 min before being removed, and the wound cleaned and sutured. Carprofen (5 mg/kg subcutaneously) was administered for pain relief and a rehydration treatment of 5% glucose in 0.9% saline (up to 5 ml ip) was given prior to recovery from the anaesthetic. Behavioural Assessment Confirmation of the Lesion • At least 2 weeks following surgery, animals were examined for rotational behaviour (see below) in response to the administration of apomorphine hydrochloride (0.5 mg/kg s.c. in 0.9% saline containing 0.05% ascorbic acid) to evaluate the extent of the lesion. […]. Animals were placed in rotometers (Med Associates) for up to 30 min to measure basal activity. They were then treated with benserazide (10 mg/kg) concomitantly with test compound or L-DOPA (63.4 μmole/kg ip or po). Rotation behaviour was assessed for up to 6 hours after test drug/L-DOPA administration. Animals were typically treated with a series of compounds for comparative purposes. Each treatment was administered at least 1 day apart. Data Analysis • The number of rotations measured per 10 minutes over the 6 hour period was determined. Animals were considered active if they turned >10 turns per 10 minutes.

CNC(=O)Oc1cc(C[C@H](NC(=O)[C@@H](N)Cc2ccc(O)c(O)c2)C(=O)OC)ccc1O.Cl [Example 8, (S)-2-(3,4-Dihydroxy-phenyl)-1-[(S)-2-(4-hydroxy-3-methylcarbamoyloxy-phenyl)-1-methoxycarbonyl-ethylcarbamoyl]-ethyl-ammonium chloride]
AUC (locomotor activity): 928 (±161) rotations per 220 min
locomotor activity compared to baseline: increased locomotor activity compared to baseline
peak locomotor activity: 92 (±20) rotations per 10 min
duration of locomotor activity (active = >10 turns per 10 minutes): 142 (±7) min
